Test results: article PMC10920834, “Synthesis, anticancer activity, and molecular docking of half-sandwich iron(II) cyclopentadienyl complexes with maleimide and phosphine or phosphite ligands” (Scientific Reports, 2024)
Where two headings read alike, the source gives them in different places.

Experiments:
PBM cells [1] = details: cited from earlier work; for IC50: studied previously, read-out: IC50 PBM cells (ruthenium analogues)
[2] = system: doxorubicin-sensitive cells (Colo205); set-up: method as in PMID 37187089; details: cited from earlier work
[3] = system: doxorubicin-resistant (Colo320) cells; set-up: method as in PMID 37187089; details: cited from earlier work
HL-60 cells [4] = experiment: Cell viability resazurin assay, HL-60 cells; format: cell-based, human; details: for viability of HL-60 cells relative to control: ± SD
Experimental: (§1) The A549 (human non-small cell lung cancer) cell line was obtained from the American Type Culture Collection (ATCC) and cultured in Dulbecco's Modified Eagle Medium (DMEM) with 10% fetal bovine serum (FBS), 2 mM L-Glutamine, 25 mM HEPES and penicillin/streptomycin solution (100 U/ml and 100 µg/ml, respectively). The HL-60 (human promyelocytic leukemia) cell line was also obtained from the American Type Culture Collection (ATCC) and cultured in Iscove’s Modified Dulbecco's Medium (IMDM) with 15% fetal bovine serum (FBS), 2 mM L-Glutamine, 25 mM HEPES and penicillin/streptomycin solution (100 U/ml and 100 µg/ml, respectively). Both cell lines were cultured in flasks at 37 °C in 5% CO2 and sub-cultured every 2–3 days to maintain exponential growth.
(§2) Firstly, resazurin salt powder was dissolved in sterile 1 × PBS. Cells were then seeded on the 96-well plates in the count of 1 × 10^4 in the case of HL-60 cells and of 5 × 10^4 for PBM cells and of 5 × 10^3 for A549 cells per well. A549 cells were seeded 24 h prior to treatment with the complexes to allow cell adherence to 96-well plate. Iron(II) complexes were added to wells to obtain final concentrations of 0.5, 1, 2.5, 5, 10, 25, 50, 100 and 250 μM. Subsequently, plates were incubated at 37 °C in 5% CO2 for 2 h and 24 h. After that 10 μl of resazurin salt was added to each well and plates again were incubated in 37 °C in 5% CO2 for 2 h. Finally, fluorescence was measured with microplate reader Synergy HT (Bio-Tek Instruments, USA) using an excitation wavelength of 530/25 and an emission wavelength of 590/35 nm. The effects of iron(II) complexes were calculated as the percentage of control fluorescence. IC50 (half maximal inhibitory concentration) values were calculated using a website algorithm (https://www.aatbio.com/tools/ic50-calculator). All assays were performed in octuplicate.

PBM cells [5] = experiment: Cell viability resazurin assay, PBM cells; format: cell-based, human; details: for viability of PBM cells relative to control: ± SD
From the text: Peripheral blood mononuclear (PBM) cells were isolated from a leukocyte-buffy coat collected from the blood of healthy, non-smoking donors at the Blood Bank in Lodz, Poland. The study protocol received approval from the Committee for Research on Human Subjects of the University of Lodz (17/KBBN-UŁ/III/2019). The initial step of isolation process involved mixing buffy coats with PBS in a 1:1 ratio. Subsequently, the mixture was centrifuged using a density gradient of Lymphosep (Cytogen, Zgierz, Poland) at 2200 RPM for 20 min, employing the lowest values for acceleration and deceleration. PBM cells were collected and washed three times by centrifugation with 1 × PBS. Following isolation, the cells were suspended in RPMI 1640 medium.
as §2

A549 cells = experiment: Cell viability resazurin assay, A549 cells; format: cell-based, human; details: for viability of A549 cells relative to control: ± SD
Experimental: as §1, §2

HL-60 cells [6] = experiment: Alkaline comet assay, HL-60 cells; format: cell-based, human
Experimental: Selected iron(II) complexes were added to the suspension of the cells to give final concentrations of 1, 5, 10, 25 and 50 μM. HL-60 and A549 cells were incubated with the complexes for 2 h at 37 °C. The comet assay was performed under alkaline conditions according to the procedure of Tokarz et al.[45]. […] Next, the cells were lysed for 1 h at 4 °C in a buffer containing 2.5 M NaCl, 0.1 M EDTA, 10 mM Tris, 1% Triton X-100, pH 10. Following the lysis, the slides were placed in an electrophoresis unit. DNA was allowed to unwind for 20 min in the solution containing 300 mM NaOH and 1 mM EDTA, pH > 13. […] After separation, the slides were washed in water, drained, stained with 2 μg/ml DAPI and covered with cover slips. As a prevention from additional DNA damage, the procedure described above was conducted under limited light or in the dark. Each experiment included the positive control—cells incubated with H2O2 at 20 µM for 15 min on ice (data not shown).
The comets obtained after single cell gel electrophoresis were analysed in the following manner. […] Hundred images of singular comets were randomly selected from each sample and the mean value of DNA in comet tail was taken as an index of DNA damage (expressed in percent).

HL-60 cells [7] = system: HL-60 cells; set-up: method as in PMID 26486993; details: studied previously; read-out: IC50 HL-60 cells (ruthenium analogues); cited from earlier work

## O=C1C=CC(=O)[N-]1.[C-]#[O+].[Ru+2].c1cc[cH-]c1.c1ccc(P(c2ccccc2)c2ccccc2)cc1 [2a-Ru]
PBM cells [1]
  cytotoxicity toward PBM cells of ruthenium analogues, in words: non-toxic

## O=S(=O)([O-])C(F)(F)F.[C-]#[O+].[Fe+2].c1cc[cH-]c1.c1ccc(Cn2ccnc2)cc1.c1ccc(P(c2ccccc2)c2ccccc2)cc1 [[CpFe(CO)(PPh3) (1-benzylimidazole)](CF3SO3)]
[2]
  IC50: 1.26 ± 0.11 µM
[3]
  IC50: 2.21 ± 0.26 µM

## O=C1C=CC(=O)[N-]1.[C-]#[O+].[C-]#[O+].[Fe+2].c1cc[cH-]c1 [compound 1, CpFe(CO)2(η^1-N-maleimidato)]
HL-60 cells [4]; 2 h incubation, 0.5 µM
  viability of HL-60 cells relative to control: 101.68 ± 0.96%
HL-60 cells [4]; 2 h incubation, 1 µM
  viability of HL-60 cells relative to control: 101.06 ± 1.48%
HL-60 cells [4]; 2 h incubation, 2.5 µM
  viability of HL-60 cells relative to control: 100.83 ± 2.04%
HL-60 cells [4]; 2 h incubation, 5 µM
  viability of HL-60 cells relative to control: 97.79 ± 1.25%
HL-60 cells [4]; 2 h incubation, 10 µM
  viability of HL-60 cells relative to control: 89.74 ± 2.7%
HL-60 cells [4]; 2 h incubation, 25 µM
  viability of HL-60 cells relative to control: 83.96 ± 1.62%
HL-60 cells [4]; 2 h incubation, 50 µM
  viability of HL-60 cells relative to control: 73.55 ± 0.27%
HL-60 cells [4]; 2 h incubation, 100 µM
  viability of HL-60 cells relative to control: 24.73 ± 1.89%
HL-60 cells [4]; 2 h incubation, 250 µM
  viability of HL-60 cells relative to control: 15.71 ± 0.21%
HL-60 cells [4]; 24 h incubation
  IC50: 7.69 µM
HL-60 cells [4]; 24 h incubation, 0.5 µM
  viability of HL-60 cells relative to control: 106.53 ± 5.45%
HL-60 cells [4]; 24 h incubation, 1 µM
  viability of HL-60 cells relative to control: 107.4 ± 3.25%
HL-60 cells [4]; 24 h incubation, 2.5 µM
  viability of HL-60 cells relative to control: 109.43 ± 1.41%
HL-60 cells [4]; 24 h incubation, 5 µM
  viability of HL-60 cells relative to control: 89.27 ± 2.42%
HL-60 cells [4]; 24 h incubation, 10 µM
  viability of HL-60 cells relative to control: 42.91 ± 0.62%
HL-60 cells [4]; 24 h incubation, 25 µM
  viability of HL-60 cells relative to control: 37.45 ± 1.48%
HL-60 cells [4]; 24 h incubation, 50 µM
  viability of HL-60 cells relative to control: 30.99 ± 0.27%
HL-60 cells [4]; 24 h incubation, 100 µM
  viability of HL-60 cells relative to control: 14.21 ± 0.37%
HL-60 cells [4]; 24 h incubation, 250 µM
  viability of HL-60 cells relative to control: 3.83 ± 0.21%
PBM cells [5]; 2 h incubation, 0.5 µM
  viability of PBM cells relative to control: 101.07 ± 0.78%
PBM cells [5]; 2 h incubation, 1 µM
  viability of PBM cells relative to control: 100.74 ± 0.73%
PBM cells [5]; 2 h incubation, 2.5 µM
  viability of PBM cells relative to control: 99.56 ± 1.96%
PBM cells [5]; 2 h incubation, 5 µM
  viability of PBM cells relative to control: 99.26 ± 2.82%
PBM cells [5]; 2 h incubation, 10 µM
  viability of PBM cells relative to control: 101.49 ± 4.25%
PBM cells [5]; 2 h incubation, 25 µM
  viability of PBM cells relative to control: 99.86 ± 1.87%
PBM cells [5]; 2 h incubation, 50 µM
  viability of PBM cells relative to control: 100.66 ± 0.97%
PBM cells [5]; 2 h incubation, 100 µM
  viability of PBM cells relative to control: 100.59 ± 1.01%
PBM cells [5]; 2 h incubation, 250 µM
  viability of PBM cells relative to control: 93.17 ± 2.92%
PBM cells [5]; 24 h incubation
  IC50: 106 µM
PBM cells [5]; 24 h incubation, 0.5 µM
  viability of PBM cells relative to control: 106.05 ± 1.67%
PBM cells [5]; 24 h incubation, 1 µM
  viability of PBM cells relative to control: 103.84 ± 0.59%
PBM cells [5]; 24 h incubation, 2.5 µM
  viability of PBM cells relative to control: 99.3 ± 1.2%
PBM cells [5]; 24 h incubation, 5 µM
  viability of PBM cells relative to control: 91.84 ± 1.72%
PBM cells [5]; 24 h incubation, 10 µM
  viability of PBM cells relative to control: 85.39 ± 1.19%
PBM cells [5]; 24 h incubation, 25 µM
  viability of PBM cells relative to control: 89.23 ± 0.44%
PBM cells [5]; 24 h incubation, 50 µM
  viability of PBM cells relative to control: 78.87 ± 1.76%
PBM cells [5]; 24 h incubation, 100 µM
  viability of PBM cells relative to control: 50.82 ± 1.08%
PBM cells [5]; 24 h incubation, 250 µM
  viability of PBM cells relative to control: 21.96 ± 0.71%
A549 cells; 2 h incubation, 0.5 µM
  viability of A549 cells relative to control: 93.79 ± 10.65%
A549 cells; 2 h incubation, 1 µM
  viability of A549 cells relative to control: 93.56 ± 10.37%
A549 cells; 2 h incubation, 2.5 µM
  viability of A549 cells relative to control: 78.45 ± 9.98%
A549 cells; 2 h incubation, 5 µM
  viability of A549 cells relative to control: 67.97±12.88%
A549 cells; 2 h incubation, 10 µM
  viability of A549 cells relative to control: 63.34 ± 13%
A549 cells; 2 h incubation, 25 µM
  viability of A549 cells relative to control: 51.29 ± 9.65%
A549 cells; 2 h incubation, 50 µM
  viability of A549 cells relative to control: 41.64 ± 8.89%
A549 cells; 2 h incubation, 100 µM
  viability of A549 cells relative to control: 36.49 ± 6.19%
A549 cells; 2 h incubation, 250 µM
  viability of A549 cells relative to control: 36.35 ± 4.86%
A549 cells; 24 h incubation
  IC50: 54.2 µM
A549 cells; 24 h incubation, 0.5 µM
  viability of A549 cells relative to control: 75.31 ± 7.67%
A549 cells; 24 h incubation, 1 µM
  viability of A549 cells relative to control: 70.02 ± 8.73%
A549 cells; 24 h incubation, 2.5 µM
  viability of A549 cells relative to control: 73.33 ± 7.65%
A549 cells; 24 h incubation, 5 µM
  viability of A549 cells relative to control: 104.37 ± 10.70%
A549 cells; 24 h incubation, 10 µM
  viability of A549 cells relative to control: 108.72 ± 15.90%
A549 cells; 24 h incubation, 25 µM
  viability of A549 cells relative to control: 82.97 ± 8.04%
A549 cells; 24 h incubation, 50 µM
  viability of A549 cells relative to control: 50.31 ± 12.68%
A549 cells; 24 h incubation, 100 µM
  viability of A549 cells relative to control: 9.43 ± 1.69%
A549 cells; 24 h incubation, 250 µM
  viability of A549 cells relative to control: 2.35 ± 0.49%
HL-60 cells [6]; 2 h incubation, 1-50 μM tested
  DNA damage in HL-60 cells (alkaline comet assay), in words: induced DNA damage
HL-60 cells [6]; HL-60 cells, 2 h, 50 μM
  DNA in tail (alkaline comet assay): 25%

## O=C1C=CC(=O)[N-]1.[C-]#[O+].[Ru+2].c1cc[cH-]c1.c1ccc(P(c2ccccc2)c2ccccc2)cc1 [ruthenium complex 2b, CpRu(CO)(PPh3) (η^1-N-maleimidato)]
PBM cells [1]; listed as 2b-Ru
  cytotoxicity toward PBM cells of ruthenium analogues, in words: cytotoxic
PBM cells [1]
  IC50: 8.48 µM
HL-60 cells [7]
  IC50: 35.6 µM

## CCOP(OCC)OCC.O=C1C=CC(=O)[N-]1.[C-]#[O+].[Ru+2].c1cc[cH-]c1 [ruthenium(II) complex 3a, CpRu(CO)(P(OEt)3)(η^1-N-maleimidato)]
PBM cells [1]
  IC50: > 250 µM
HL-60 cells [7]
  IC50: 12.2 µM
